Test results from patent US10590078B2, “Sodium channel blockers” (Daewoong Pharmaceutical Co., Ltd., priority 2015, dated 2020).

Target: human sodium ion channel 1.7 (hNav1.7) (Homo sapiens, UniProt Q15858)
Test: Blocking effect against sodium ion channel Nav1.7, IonFlux16 auto patch clamp in hNav1.7 HEK293 cells
Format: cell-based
Details: hNav1.7 HEK293 cells; inhibition of peak current after 50 seconds treatment; eight concentrations; read-out: IC50

Chain of human sodium ion channel 1.7 (hNav1.7) (Q15858 whole entry): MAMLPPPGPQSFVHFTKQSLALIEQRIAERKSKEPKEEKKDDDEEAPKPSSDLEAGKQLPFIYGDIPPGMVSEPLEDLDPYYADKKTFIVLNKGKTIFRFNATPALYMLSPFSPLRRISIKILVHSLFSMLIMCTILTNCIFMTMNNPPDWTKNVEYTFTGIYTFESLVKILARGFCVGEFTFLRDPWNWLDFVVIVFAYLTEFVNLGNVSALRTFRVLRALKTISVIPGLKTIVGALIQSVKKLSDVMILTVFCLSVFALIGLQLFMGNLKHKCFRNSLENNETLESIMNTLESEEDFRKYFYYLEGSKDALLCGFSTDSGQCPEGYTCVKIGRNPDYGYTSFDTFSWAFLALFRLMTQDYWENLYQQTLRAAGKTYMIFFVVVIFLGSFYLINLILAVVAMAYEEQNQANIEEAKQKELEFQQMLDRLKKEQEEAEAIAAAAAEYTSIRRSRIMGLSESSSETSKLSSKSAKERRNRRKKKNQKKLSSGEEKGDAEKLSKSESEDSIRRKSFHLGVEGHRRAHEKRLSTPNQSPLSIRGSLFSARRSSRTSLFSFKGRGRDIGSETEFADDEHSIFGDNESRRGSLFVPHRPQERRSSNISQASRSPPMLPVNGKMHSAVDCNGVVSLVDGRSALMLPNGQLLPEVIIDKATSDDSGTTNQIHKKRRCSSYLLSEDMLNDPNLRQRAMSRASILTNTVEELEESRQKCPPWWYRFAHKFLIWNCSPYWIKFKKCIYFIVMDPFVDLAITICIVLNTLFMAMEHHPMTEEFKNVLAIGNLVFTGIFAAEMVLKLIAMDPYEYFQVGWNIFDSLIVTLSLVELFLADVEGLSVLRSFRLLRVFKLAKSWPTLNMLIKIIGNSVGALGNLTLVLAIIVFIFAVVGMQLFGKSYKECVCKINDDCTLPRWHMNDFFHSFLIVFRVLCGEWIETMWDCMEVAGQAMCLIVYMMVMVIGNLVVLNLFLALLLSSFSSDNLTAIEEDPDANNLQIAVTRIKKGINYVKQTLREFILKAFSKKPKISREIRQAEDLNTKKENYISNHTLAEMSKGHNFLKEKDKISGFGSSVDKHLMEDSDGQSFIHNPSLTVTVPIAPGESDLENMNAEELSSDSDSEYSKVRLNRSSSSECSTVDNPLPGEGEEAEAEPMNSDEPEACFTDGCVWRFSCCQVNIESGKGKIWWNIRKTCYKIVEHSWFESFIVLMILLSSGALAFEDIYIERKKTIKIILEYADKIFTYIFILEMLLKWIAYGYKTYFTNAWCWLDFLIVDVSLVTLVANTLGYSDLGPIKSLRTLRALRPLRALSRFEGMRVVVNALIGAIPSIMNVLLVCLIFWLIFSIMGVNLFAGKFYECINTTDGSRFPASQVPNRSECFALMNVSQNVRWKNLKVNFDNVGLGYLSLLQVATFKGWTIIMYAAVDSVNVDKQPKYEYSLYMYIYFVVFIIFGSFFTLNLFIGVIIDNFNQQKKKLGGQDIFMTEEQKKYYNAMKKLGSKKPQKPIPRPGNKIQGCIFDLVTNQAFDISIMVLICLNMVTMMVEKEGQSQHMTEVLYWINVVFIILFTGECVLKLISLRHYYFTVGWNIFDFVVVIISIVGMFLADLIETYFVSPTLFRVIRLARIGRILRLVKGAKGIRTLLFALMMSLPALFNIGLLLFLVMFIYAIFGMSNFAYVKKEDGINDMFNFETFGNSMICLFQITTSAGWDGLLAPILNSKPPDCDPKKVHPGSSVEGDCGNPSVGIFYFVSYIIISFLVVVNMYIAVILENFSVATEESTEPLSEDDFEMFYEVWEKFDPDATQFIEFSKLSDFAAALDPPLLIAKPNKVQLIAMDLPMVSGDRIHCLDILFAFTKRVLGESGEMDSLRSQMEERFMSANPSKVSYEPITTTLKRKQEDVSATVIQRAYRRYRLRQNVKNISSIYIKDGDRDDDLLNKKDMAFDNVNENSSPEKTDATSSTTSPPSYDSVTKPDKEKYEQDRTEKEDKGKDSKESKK

Row | IC50 [nM] | Compound
1 | > 10000 | Cc1nn(-c2cc(F)c(C(=O)NS(C)(=O)=O)cc2Cl)c2ccc(Cl)cc12 [Example 1, 5-chloro-4-(5-chloro-3-methyl-1H-indazol-1-yl)-2-fluoro-N-(methylsulfonyl)benzamide]
2 | 5390 | CS(=O)(=O)NC(=O)c1cc(Cl)c(-n2ncc3cc(Cl)ccc32)cc1F [Example 2, 5-chloro-4-(5-chloro-1H-indazol-1-yl)-2-fluoro-N-(methylsulfonyl)benzamide]
3 | 1130 | CS(=O)(=O)NC(=O)c1cc(Cl)c(-n2nc(Cl)c3cc(Cl)cnc32)cc1F [Example 3, 5-chloro-4-(3,5-dichloro-1H-pyrazolo[3,4-b]pyridin-1-yl)-2-fluoro-N-(methylsulfonyl)benzamide]
4 | > 10000 | CS(=O)(=O)NC(=O)c1cc(Cl)c(-n2nc(N)c3cc(Cl)ccc32)cc1F [Example 5, 4-(3-amino-5-chloro-1H-indazol-1-yl)-5-chloro-2-fluoro-N-(methylsulfonyl)benzamide]
5 | 117 | CS(=O)(=O)NC(=O)c1cc(Cl)c(-n2nc(Cl)c3cc(Cl)ccc32)cc1F [Example 9, 5-chloro-4-(3,5-dichloro-1H-indazol-1-yl)-2-fluoro-N-(methylsulfonyl)benzamide]
6 | 3090 | CS(=O)(=O)NC(=O)c1cc(Cl)c(-n2ncc3c(Cl)c(F)ccc32)cc1F [Example 15, 5-chloro-4-(4-chloro-5-fluoro-1H-indazol-1-yl)-2-fluoro-N-(methylsulfonyl)benzamide]
7 | > 10000 | CS(=O)(=O)NC(=O)c1cc(Cl)c(-n2nc(Cl)c3cc(O)ccc32)cc1F [Example 16, 5-chloro-4-(3-chloro-5-hydroxy-1H-indazol-1-yl)-2-fluoro-N-(methylsulfonyl)benzamide]
8 | 175 | CS(=O)(=O)NC(=O)c1cc(Cl)c(-n2nc(Cl)c3cc(Br)ccc32)cc1F [Example 21, 4-(5-bromo-3-chloro-1H-indazol-1-yl)-5-chloro-2-fluoro-N-(methylsulfonyl)benzamide]
9 | 966 | CS(=O)(=O)NC(=O)c1cc(Cl)c(-n2nc(C#N)c3cc(Br)ccc32)cc1F [Example 22, 4-(5-bromo-3-cyano-1H-indazol-1-yl)-5-chloro-2-fluoro-N-(methylsulfonyl)benzamide]
10 | 365 | CS(=O)(=O)NC(=O)c1cc(Cl)c(-n2nc(Cl)c3cc([N+](=O)[O-])ccc32)cc1F [Example 23, 5-chloro-4-(3-chloro-5-nitro-1H-indazol-1-yl)-2-fluoro-N-(methylsulfonyl)benzamide]
11 | 280 | CS(=O)(=O)NC(=O)c1cc(Cl)c(-n2nc(Cl)c3cc(C4CC4)ccc32)cc1F [Example 24, 5-chloro-4-(3-chloro-5-cyclopropyl-1H-indazol-1-yl)-2-fluoro-N-(methylsulfonyl)benzamide]
12 | 100 | CS(=O)(=O)NC(=O)c1cc(Cl)c(-n2nc(-c3ccccc3)c3cc(C4CC4)ccc32)cc1F [Example 26, 5-chloro-4-(5-cyclopropyl-3-phenyl-1H-indazol-1-yl)-2-fluoro-N-(methylsulfonyl)benzamide]
13 | 7710 | CS(=O)(=O)NC(=O)c1cc(Cl)c(-n2nc(Cl)c3cc(Nc4ccccc4)ccc32)cc1F [Example 27, 5-chloro-4-(3-chloro-5-(phenylamino)-1H-indazol-1-yl)-2-fluoro-N-(methylsulfonyl)benzamide]
14 | 49 | CS(=O)(=O)NC(=O)c1cc(Cl)c(-n2nc(Cl)c3cc(OCc4ccccc4)ccc32)cc1F [Example 28, 4-(5-(benzyloxy)-3-chloro-1H-indazol-1-yl)-5-chloro-2-fluoro-N-(methylsulfonyl)benzamide]
15 | 786 | CS(=O)(=O)NC(=O)c1cc(Cl)c(-n2ncc3c(Cl)c(OCc4ccccc4)ccc32)cc1F [Example 29, 4-(5-(benzyloxy)-4-chloro-1H-indazol-1-yl)-5-chloro-2-fluoro-N-(methylsulfonyl)benzamide]
16 | 1510 | CS(=O)(=O)NC(=O)c1cc(Cl)c(-n2nc(Cl)c3c(Cl)c(OCc4ccc(F)cc4)ccc32)cc1F [Example 31, 5-chloro-4-(3,4-dichloro-5-((4-fluorobenzyl)oxy)-1H-indazol-1-yl)-2-fluoro-N-(methylsulfonyl)benzamide]

The next lines start with the compound.

Row | Compound | IC50 [nM]
17 | CS(=O)(=O)NC(=O)c1ccc(-n2nc(Cl)c3cc(Cl)ccc32)cc1F [Example 4, 4-(3,5-dichloro-1H-indazol-1-yl)-2-fluoro-N-(methylsulfonyl)benzamide] | > 10000
18 | CC(=O)Nc1nn(-c2cc(F)c(C(=O)NS(C)(=O)=O)cc2Cl)c2ccc(Cl)cc12 [Example 6, 4-(3-acetamido-5-chloro-1H-indazol-1-yl)-5-chloro-2-fluoro-N-(methylsulfonyl)benzamide] | > 10000
19 | CN(C)S(=O)(=O)NC(=O)c1cc(Cl)c(-n2nc(Cl)c3cc(Cl)ccc32)cc1F [Example 7, 5-chloro-4-(3,5-dichloro-1H-indazol-1-yl)-N—(N,N-dimethylsulfamoyl)-2-fluorobenzamide] | 227
20 | CS(=O)(=O)NC(=O)c1ccc(-n2nc(Cl)c3cc(Cl)ccc32)c(Cl)c1 [Example 8, 3-chloro-4-(3,5-dichloro-1H-indazol-1-yl)-N-(methylsulfonyl)benzamide] | 880
21 | CS(=O)(=O)NC(=O)c1cc(Cl)c(-n2ncc3cc(Cl)ncc32)cc1F [Example 10, 5-chloro-4-(5-chloro-1H-pyrazolo[3,4-c]pyridin-1-yl)-2-fluoro-N-(methylsulfonyl)benzamide] | > 10000
22 | CS(=O)(=O)NC(=O)c1cc(Cl)c(-n2nc(Cl)c3cc(Cl)ncc32)cc1F [Example 11, 5-chloro-4-(3,5-dichloro-1H-pyrazolo[3,4-c]pyridin-1-yl)-2-fluoro-N-(methylsulfonyl)benzamide] | > 10000
23 | CS(=O)(=O)NC(=O)c1ccc(-n2nc(Cl)c3cc(O)ccc32)cc1 [Example 12, 4-(3-chloro-5-hydroxy-1H-indazol-1-yl)-N-(methylsulfonyl)benzamide] | > 10000
24 | CS(=O)(=O)NC(=O)c1cc(Cl)c(-n2ncc3cc(N)ccc32)cc1F [Example 13, 4-(5-amino-1H-indazol-1-yl)-5-chloro-2-fluoro-N-(methylsulfonyl)benzamide] | > 10000
25 | Cc1nn(-c2cc(F)c(C(=O)NS(C)(=O)=O)cc2Cl)c2ccc([N+](=O)[O-])cc12 [Example 14, 5-chloro-2-fluoro-4-(3-methyl-5-nitro-1H-indazol-1-yl)-N-(methylsulfonyl)benzamide] | 3000 to 10000
26 | CS(=O)(=O)NC(=O)c1cc(Cl)c(-n2nc(Cl)c3cc(F)ccc32)cc1F [Example 17, 5-chloro-4-(3-chloro-5-fluoro-1H-indazol-1-yl)-2-fluoro-N-(methylsulfonyl)benzamide] | 476
27 | CS(=O)(=O)NC(=O)c1cc(Cl)c(-n2nc(Cl)c3cc(C(F)(F)F)ccc32)cc1F [Example 18, 5-chloro-4-(3-chloro-5-(trifluoromethyl)-1H-indazol-1-yl)-2-fluoro-N-(methylsulfonyl)benzamide] | 587
28 | CS(=O)(=O)NC(=O)c1cc(Cl)c(-n2nc(Br)c3cc(Cl)ccc32)cc1F [Example 19, 4-(3-bromo-5-chloro-1H-indazol-1-yl)-5-chloro-2-fluoro-N-(methylsulfonyl)benzamide] | 216
29 | Cc1nn(-c2cc(F)c(C(=O)NS(C)(=O)=O)cc2Cl)c2ccc(OCc3ccccc3)cc12 [Example 30, 4-(5-(benzyloxy)-3-methyl-1H-indazol-1-yl)-5-chloro-2-fluoro-N-(methylsulfonyl)benzamide] | 247
